Data published in US20250034150A1, “BTK INHIBITORS” (BIOGEN MA INC., priority 2021, published 2025).
Read-outs that look alike come from different tables or passages of the source.

How the values were obtained:
BTK = biological target: T1, BTK (Homo sapiens, UniProt Q06187); test: In Vitro BTK Kinase Assay: Btk-PolyGAT-LS Assay; format: biochemical; settings: active BTK enzyme 0.25 nM, polyGAT 100 nM, 30 minutes, TRF readout; read-out: In Vitro BTK Kinase Assay IC50 Score
T1 construct: purchased Upstate 14-552
T1 sequence (Q06187 whole entry): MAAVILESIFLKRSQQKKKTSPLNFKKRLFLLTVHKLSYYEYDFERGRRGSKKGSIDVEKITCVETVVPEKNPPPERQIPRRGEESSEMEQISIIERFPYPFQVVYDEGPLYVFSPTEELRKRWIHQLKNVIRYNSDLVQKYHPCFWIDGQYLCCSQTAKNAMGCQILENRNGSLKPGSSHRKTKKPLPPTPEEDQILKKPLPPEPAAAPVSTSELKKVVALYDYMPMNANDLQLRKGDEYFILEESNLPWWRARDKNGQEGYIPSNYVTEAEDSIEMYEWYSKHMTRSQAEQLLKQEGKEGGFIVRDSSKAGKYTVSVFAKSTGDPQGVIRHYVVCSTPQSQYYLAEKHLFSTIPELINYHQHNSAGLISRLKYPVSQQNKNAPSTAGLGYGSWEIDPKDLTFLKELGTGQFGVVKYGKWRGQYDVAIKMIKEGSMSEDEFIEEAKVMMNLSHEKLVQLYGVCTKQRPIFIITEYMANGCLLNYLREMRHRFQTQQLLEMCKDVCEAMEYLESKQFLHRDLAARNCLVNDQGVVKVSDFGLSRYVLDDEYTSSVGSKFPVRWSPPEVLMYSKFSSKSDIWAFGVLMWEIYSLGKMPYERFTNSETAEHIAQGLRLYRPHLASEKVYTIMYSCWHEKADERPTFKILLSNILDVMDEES
Outline: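 Active BTK at 0.25 nM phosphorylated 100 nM fluorescein-polyGAT peptide at 10 μM ATP for 30 minutes. Buffer was Tris pH 7.5 with MgCl2, DTT, Triton X-100 and casein, and reactions were stopped with EDTA. Phospho-peptide was detected by Tb-PY20 antibody TR-FRET, and IC50 came from a four-parameter fit normalized to DMSO and EDTA controls.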

[1] = tested on: CD69 expression on CD19+ B cells in human whole blood; test: In Vitro whole blood CD69 Assay; format: cell-based; settings: B-cell, read-out: In Vitro HWB CD69 Assay IC50 Score
Description: Human heparinized venous blood from health donors was aliquoted into 96-well plate and “spiked” with serial dilutions of formula I compounds in DMSO or with DMSO without drug. The final concentration of DMSO in all wells was 0.1%. The plate was incubated at 37° C. for 30 min. Drug-containing samples were stimulated with 0.1 μg/mL mouse anti-human IgD-dextran (1A62) or 20 μg/mL polyclonal rabbit F(ab′)2 anti-human IgD. Phosphate-buffered saline (PBS) was added to the negative control unstimulated sample and the plates were incubated overnight (18 to 22 hours) at 37° C. Cells were stained with fluorochrome-conjugated anti-CD19 and anti-CD69 antibodies. Lyse/fix solution was used to remove red blood cells by hypotonic lysis and to fix the remaining cells, which were then analyzed by flow cytometry. CD19+ B cells were gated and analyzed for CD69 expression.

[2] = human heparinized whole blood, anti-human IgD stimulation overnight, CD19+ B cells, flow cytometry

Row | IC50 (BTK) [nM] | IC50 [1, 2] [nM] | SMILES | IC50 ([1]; Homo sapiens) [nM]
1 | < 1 | < 1000 | Cn1cc(-c2cn3nccc3c(-c3ccc(CNC(=O)c4nnc(C(C)(C)C)o4)c(C(F)F)c3)n2)cn1 [Example 102, 5-(tert-butyl)-N-(2-(difluoromethyl)-4-(6-(1-methyl-1H-pyrazol-4-yl)pyrazolo[1,5-a]pyrazin-4-yl)benzyl)-1,3,4-oxadiazole-2-carboxamide] | 
2 | < 1 | < 1000 | Cn1cc(-c2cc(-c3ccc(CNC(=O)c4cn(C(C)(C)C)nn4)c(F)c3)c3ccnn3c2)cn1 [Example 69, 1-(tert-butyl)-N-(2-fluoro-4-(6-(1-methyl-1H-pyrazol-4-yl)pyrazolo[1,5-a]pyridin-4-yl)benzyl)-1H-1,2,3-triazole-4-carboxamide] | 
3 | 1 to 10 | < 1000 | Cc1cc(-c2nc(-c3cnn(C)c3)cn3nccc23)ccc1CNC(=O)c1ccn(C(C)(C)C)n1 [Example 18, 1-(tert-butyl)-N-(2-methyl-4-(6-(1-methyl-1H-pyrazol-4-yl)pyrazolo[1,5-a]pyrazin-4-yl)benzyl)-1H-pyrazole-3-carboxamide] | 
4 | < 1 | < 1000 | Cn1cc(-c2cn3nccc3c(-c3cc(F)c(CNC(=O)c4noc(C(C)(C)C)n4)cc3F)n2)cn1 [Example 84, 5-(tert-butyl)-N-(2,5-difluoro-4-(6-(1-methyl-1H-pyrazol-4-yl)pyrazolo[1,5-a]pyrazin-4-yl)benzyl)-1,2,4-oxadiazole-3-carboxamide] | 
5 | < 1 | < 1000 | Cn1cc(-c2cn3nccc3c(-c3ccc(CNC(=O)c4nc(C(C)(C)C)no4)c(C(F)F)c3)n2)cn1 [Example 100, 3-(tert-butyl)-N-(2-(difluoromethyl)-4-(6-(1-methyl-1H-pyrazol-4-yl)pyrazolo[1,5-a]pyrazin-4-yl)benzyl)-1,2,4-oxadiazole-5-carboxamide] | 
6 | 1 to 10 | < 1000 | Cn1cc(-c2cn3nccc3c(-c3ccc(CNC(=O)c4noc(C(C)(C)C)n4)cc3F)n2)cn1 [Example 83, 5-(tert-butyl)-N-(3-fluoro-4-(6-(1-methyl-1H-pyrazol-4-yl)pyrazolo[1,5-a]pyrazin-4-yl)benzyl)-1,2,4-oxadiazole-3-carboxamide] | 
7 | < 1 | 1000 to 10000 | Cn1cc(-c2cn3nccc3c(-c3ccc(CNC(=O)c4cnn(C(C)(C)C)n4)c(C(F)F)c3)n2)cn1 [Example 104, 2-(tert-butyl)-N-(2-(difluoromethyl)-4-(6-(1-methyl-1H-pyrazol-4-yl)pyrazolo[1,5-a]pyrazin-4-yl)benzyl)-2H-1,2,3-triazole-4-carboxamide] | 
8 | 1 to 10 | 1000 to 10000 | Cn1cc(-c2cn3nccc3c(N3CCC(CNC(=O)c4noc(C5(C)CC5)n4)CC3)n2)cn1 [Example 137, N-((1-(6-(1-methyl-1H-pyrazol-4-yl)pyrazolo[1,5-a]pyrazin-4-yl)piperidin-4-yl)methyl)-5-(1-methylcyclopropyl)-1,2,4-oxadiazole-3-carboxamide] | 
9 | 1 to 10 | < 1000 | COCCOc1cn2nccc2c(-c2ccc(CNC(=O)c3cn(C(C)(C)C)nn3)c(C)c2)n1 [Example 122, 1-(tert-butyl)-N-(4-(6-(2-methoxyethoxy)pyrazolo[1,5-a]pyrazin-4-yl)-2-methylbenzyl)-1H-1,2,3-triazole-4-carboxamide] | 
10 | < 1 | < 1000 | Cc1cc(-c2nc(-c3cnn(C)c3)cc3nccn23)ccc1CNC(=O)c1noc(C(C)(C)C)n1 [Example 78, 5-(tert-butyl)-N-(2-methyl-4-(7-(1-methyl-1H-pyrazol-4-yl)imidazo[1,2-c]pyrimidin-5-yl)benzyl)-1,2,4-oxadiazole-3-carboxamide] | 
11 | < 1 | < 1000 | Cn1cc(-c2cc(-c3ccc(CNC(=O)c4nc(C(C)(C)CF)no4)c(F)c3)c3ccnn3c2)cn1 [Example 71, 3-(1-fluoro-2-methylpropan-2-yl)-N-(2-fluoro-4-(6-(1-methyl-1H-pyrazol-4-yl)pyrazolo[1,5-a]pyridin-4-yl)benzyl)-1,2,4-oxadiazole-5-carboxamide] | 
12 | 1 to 10 | 1000 to 10000 | Cn1cc(-c2cn3nccc3c(-c3ccc(CNC(=O)c4nnn(C(C)(C)C)n4)nc3)n2)cn1 [Example 115, 2-(tert-butyl)-N-((5-(6-(1-methyl-1H-pyrazol-4-yl)pyrazolo[1,5-a]pyrazin-4-yl)pyridin-2-yl)methyl)-2H-tetrazole-5-carboxamide] | 
13 | 1 to 10 | 1000 to 10000 | Cn1cc(-c2cn3nccc3c(N3CCC(C)(CNC(=O)c4noc(C(C)(C)C)n4)CC3)n2)cn1 [Example 41, 5-(tert-butyl)-N-((4-methyl-1-(6-(1-methyl-1H-pyrazol-4-yl)pyrazolo[1,5-a]pyrazin-4-yl)piperidin-4-yl)methyl)-1,2,4-oxadiazole-3-carboxamide] | 
14 | < 1 | < 1000 | Cc1cc(-c2nc(-c3cnn(C)c3)cn3nccc23)ccc1CNC(=O)c1cn(C(C)(C)C)nn1 [Example 16, 1-(tert-butyl)-N-(2-methyl-4-(6-(1-methyl-1H-pyrazol-4-yl)pyrazolo[1,5-a]pyrazin-4-yl)benzyl)-1H-1,2,3-triazole-4-carboxamide] | 
15 | 10 to 1000 | 1000 to 10000 | Cn1cc(-c2cn3nccc3c(N3CCC(C)(CNC(=O)c4nnn(C(C)(C)C)n4)CC3)n2)cn1 [Example 43, 2-(tert-butyl)-N-((4-methyl-1-(6-(1-methyl-1H-pyrazol-4-yl)pyrazolo[1,5-a]pyrazin-4-yl)piperidin-4-yl)methyl)-2H-tetrazole-5-carboxamide] | 
16 | 1 to 10 | 1000 to 10000 | Cn1cc(-c2cn3nccc3c(-c3ccc(CNC(=O)c4coc(C(C)(C)C)n4)c(C(F)F)c3)n2)cn1 [Example 101, 2-(tert-butyl)-N-(2-(difluoromethyl)-4-(6-(1-methyl-1H-pyrazol-4-yl)pyrazolo[1,5-a]pyrazin-4-yl)benzyl)oxazole-4-carboxamide] | 
17 | 10 to 1000 | 1000 to 10000 | Cn1cc(-c2cn3ncnc3c(N3CCC(CNC(=O)c4cn(C(C)(C)C)nn4)CC3)n2)cn1 [Example 74, 1-(tert-butyl)-N-((1-(6-(1-methyl-1H-pyrazol-4-yl)-[1,2,4]triazolo[1,5-a]pyrazin-8-yl)piperidin-4-yl)methyl)-1H-1,2,3-triazole-4-carboxamide] | 
18 | 1 to 10 | 1000 to 10000 | CC(C)CN1CCN(Cc2ccc(-c3nc(-c4cnn(C)c4)cn4nccc34)cc2F)C(=O)C1 [Example 34, 1-(2-fluoro-4-(6-(1-methyl-1H-pyrazol-4-yl)pyrazolo[1,5-a]pyrazin-4-yl)benzyl)-4-isobutylpiperazin-2-one] | 
19 | 1 to 10 | 1000 to 10000 | Cc1cc(-c2nc(-c3cnn(C)c3)cn3nccc23)ccc1CN1CCN(CC(C)C)C(C)C1=O (centres unmarked) [Example 36, 4-isobutyl-3-methyl-1-(2-methyl-4-(6-(1-methyl-1H-pyrazol-4-yl)pyrazolo[1,5-a]pyrazin-4-yl)benzyl)piperazin-2-one] | 
20 | 1 to 10 | 1000 to 10000 | CN1CCN(c2cn3nccc3c(-c3ccc(CNC(=O)c4nc(C(C)(C)C)no4)c(F)c3)n2)CC1 [Example 118, 3-(tert-butyl)-N-(2-fluoro-4-(6-(4-methylpiperazin-1-yl)pyrazolo[1,5-a]pyrazin-4-yl)benzyl)-1,2,4-oxadiazole-5-carboxamide] | 
21 | 1 to 10 | 1000 to 10000 | Cn1cc(-c2cn3nccc3c(-c3ccc(CNC(=O)c4cn(C(C)(C)C)nn4)cc3F)n2)cn1 [Example 112, 1-(tert-butyl)-N-(3-fluoro-4-(6-(1-methyl-1H-pyrazol-4-yl)pyrazolo[1,5-a]pyrazin-4-yl)benzyl)-1H-1,2,3-triazole-4-carboxamide] | 
22 | 10 to 1000 | 1000 to 10000 | Cn1cc(-c2cn3nccc3c(-c3ccc(CNC(=O)c4ccn(C(C)(C)C)n4)cc3)n2)cn1 [Example 1, 1-(tert-butyl)-N-(4-(6-(1-methyl-1H-pyrazol-4-yl)pyrazolo[1,5-a]pyrazin-4-yl)benzyl)-1H-pyrazole-3-carboxamide] | 
23 | 1 to 10 | 1000 to 10000 | Cc1cc(-c2nc(-c3cnn(C)c3)cn3nccc23)ccc1CN1CCN(CC(C)C)CC1=O [Example 30, 4-isobutyl-1-(2-methyl-4-(6-(1-methyl-1H-pyrazol-4-yl)pyrazolo[1,5-a]pyrazin-4-yl)benzyl)piperazin-2-one] | 

Row | SMILES | IC50 (BTK) [nM] | IC50 [1, 2] [nM] | IC50 ([1]; Homo sapiens) [nM]
24 | C[C@@H]1C(c2nc(C(=O)NCc3ccc(-c4nc(-c5cnn(C)c5)cc5nccn45)cc3)no2)[C@@H]1C (mixture of isomers) [Example 62, 5-(2,3-cis-dimethylcyclopropyl)-N-(4-(7-(1-methyl-1H-pyrazol-4-yl)imidazo[1,2-c]pyrimidin-5-yl)benzyl)-1,2,4-oxadiazole-3-carboxamide] | 1 to 10 |  | 1000 to 10000
25 | Cn1cc(-c2cn3nccc3c(-c3ccc(CNC(=O)c4nnc(C(C)(C)C)o4)c(F)c3)n2)cn1 [Example 6, 5-(tert-butyl)-N-(2-fluoro-4-(6-(1-methyl-1H-pyrazol-4-yl)pyrazolo[1,5-a]pyrazin-4-yl)benzyl)-1,3,4-oxadiazole-2-carboxamide] | < 1 |  | < 1000
